Experimental data as given in patent US12446577B2 (priority 2018, dated 2025).
Where two headings read alike, the source gives them in different places.

What was measured:
Plasmopara viticola = Plasmopara viticola grapevine leaf disc test; format: in vivo
Procedure: A stock solution of choline pelargonate (29.1% PLA and 40.4% Choline hydroxide, pH 8.82) was made by mixing 14.55 mL PLA with 15.25 mL distilled water and afterwards the addition of 20.2 mL of Choline hydroxide. The choline pelargonate stock solution (42.04%) was diluted in order to create a solution with a final concentration of choline pelargonate equal to 1 mL/L and 10 mL/L. The two choline pelargonate solutions, water as negative control and copper hydroxide (2 g/L) as positive control were used for this test. For each object 4 Petri plates were prepared and each plate contains 5 grapevine leaf discs (see Table 8 below).
Leaf discs preparation: leaf discs (diameter 19 mm) were prepared from grapevine cuttings (variety Pinot Nero Entav 115) using the young leaves. 5 leaf discs were placed in each Petri Plate on autoclaved paper (4 layers), the paper was previously wetted by adding 8.5 mL of sterile water in each plate. The leaf discs were placed on the paper with the abaxial side upward.
Test products application and pathogen inoculation: leaf discs were treated with the test products at 11.30 A.M (i.e. a preventive application) and the leaves were allowed to dry. The products were sprayed with a small hand sprayer; 5 sprays were applied on each plate. The same day at 16.30 a suspension of P. viticola spores at final concentration of 2*10^5 spore/mL was applied (5 hours after test product application) on the leaf discs. The inoculated plates were incubated overnight in the dark at 25° C. The following day, the leaf discs were dried under the laminar flow and then placed back at 25° C. The disease assessment was done 7 days after the artificial inoculation.

Phytophthora infestans = format: in vivo; settings: 1 min dip, 7 days of incubation; for Lesion Size: n = 5
powdery mildew on apple = assay: Trial on potted apple trees against powdery mildew; format: in vivo; settings: day 85; weekly sprays (TMAP 10 mL/L; Chemical per Table 13/14); 1000 leaves per object
Description: (§1) During the third week of March 2017, 60 branched apple trees (rootstock M9—clone Golden B) of 2 years were transplanted from a local nursery into pots (pot: 12 Liters). The 60 potted apple plants were maintained outside the greenhouse in S. Michele all′Adige (Trento). Plants were maintained divided in 3 blocks. Each block was composed of 20 plants arranged in two rows (See scheme 1). Plants were watered through a drip irrigation system once or twice a week according to the weather conditions. The insecticidal treatments were applied uniformly on all the experimental plants. Two of the three objects were treated against powdery mildew in accordance with the foreseen spray scheme: Chemical treatments, TMAP alone, untreated. One object was maintained Untreated as reference. For the “Chemical” object, different active ingredients were used alone or in combination (Table 13).
The treatments were performed at the same time, and timings of spray were done weekly and according to the weather conditions. […]
Powdery mildew: 5 shoots per each plant were randomly selected and labeled for the assessments. The assessment on powdery mildew was done on day 85, ten leaves of each shoot were singularly evaluated for the presence of symptoms, 5 marked shoots per plant were assessed. […]
Data of powdery mildew incidence were analyzed using the Statistica 13.1 software.

Botrytis cinerea = assay: Mycelium growth inhibition on PDA (Example 7); format: cell-based; settings: 3 days at 25° C; for Average mycelium diameter: n = 4
Procedure: (§2) Strains used for this trial were kept and refreshed on Potato Dextrose Agar (PDA) at 25° C.
(§3) To begin, a quantity of test product was directly added in a certain volume of PDA (about 20 mL/petri dish) (Table 11). Plugs of agar (diameter 10 mm) from one week-old cultures were placed at the centre of the PDA plates. Each object was performed in 4 repetitions. The petri dishes were then incubated at 25° C. in the dark. After 3 and 6 days of incubation, the diameter of the colonies was measured in 2 perpendicular directions. The percentage of inhibition was calculated for each product/concentration compare to the untreated.

Pythium ultimum = assay: Mycelium growth inhibition on PDA (Example 7); format: cell-based; settings: 3 days at 25° C; for Average mycelium diameter: n = 4
Procedure: as §2, §3

Sclerotinia sclerotiorum = assay: Mycelium growth inhibition on PDA (Example 7); format: cell-based; settings: 3 days at 25° C; for Average mycelium diameter: n = 4
Procedure: as §2, §3

Sclerotinia minor = assay: Mycelium growth inhibition on PDA (Example 7); format: cell-based; settings: 3 days at 25° C; for Average mycelium diameter: n = 4
Procedure: as §2, §3

Rhizoctonia solani = assay: Mycelium growth inhibition on PDA (Example 7); format: cell-based; settings: 3 days at 25° C; for Average mycelium diameter: n = 4
Procedure: as §2, §3

apple trees = assay: Phytotoxicity on apple trees in the powdery mildew trial; format: in vivo; settings: repeated applications during the season, 10 mL/L
Description: as §1
The treatments were performed at the same time, and timings of spray were done weekly and according to the weather conditions. The applications were done with a pressurized hand sprayer (water volume 1.5-2 L per object).

lettuce plants = assay: Phytotoxicity on lettuce plants after spraying; format: in vivo; settings: 2.5% pelargonic acid, sprayed until run-off, n = 6, scale 0 to 100%
Procedure: A neutralization reaction was made with pelargonic acid (>97%) and choline hydroxide (45%) based on the titration curve (FIG. 1). Based on the titration curve, a stock solution of choline pelargonate (29.1% PLA (>97%) and 40.4% Choline hydroxide (45%)) was made by mixing 14.55 mL pelargonic acid with 15.25 mL distilled water and afterwards the addition of 20.2 mL choline hydroxide. The choline pelargonate stock solution was diluted in distilled water to obtain a diluted choline pelargonate composition comprising about 2.5% pelargonic acid. The total concentration of choline pelargonate in the water spray solution was 37.08 g a.i./L (a.i.=active ingredient).
The next step was to assess the phytotoxicity of a composition comprising choline pelargonate on lettuce plants. As a control, plants were treated with water. The plants were also treated with a diluted pelargonic acid composition, including a diluted pelargonic acid solution based on the commercial product Beloukha (Belchim Crop Protection).
Lettuce plants were sprayed with a small hand sprayer until run-off with the respective compositions and incubated at 20° C. Each composition was tested with a setup consisting out of six plants. A visual assessment was made on lettuce plants after spraying. The effect of phytotoxicity (necrosis or discolouration) was scored by a scale from 0 to 100%, with 0% no phytotoxicity and 100% fully phytotoxicity on plants.

[1] = dose rate 1 L·kg/ha (0.2 mL in 100 mL water)
[2] = dose rate 10 L·kg/ha (2 mL in 100 mL water)

## CCCCCCCCC(=O)[O-].C[N+](C)(C)CCO [Choline pelargonate, choline pelargonate]
Plasmopara viticola; 1 mL/L, preventive spray, 7 days after the artificial inoculation
  disease severity (level of sporulation): 5.3%
Plasmopara viticola; 10 mL/L, preventive spray, 7 days after the artificial inoculation
  disease severity: 0%
Plasmopara viticola; test repeated a second and a third time (data not shown)
  efficacy against P. viticola: comparable with the reference copper
Phytophthora infestans; [1]
  Efficacy (%) (Abbott): 84.9%
  Lesion Size: 0.41 ± 0.57 cm^2
Phytophthora infestans; [2]
  Efficacy (%) (Abbott): 100.0%
  Lesion Size: 0.00 ± 0.00 cm^2
Powdery mildew on apple
  disease incidence (percentage of infected leaves): 25.5%
Botrytis cinerea; 0.042% a.i. in PDA
  % efficacy compared to control (Abbott): 98%
  Average mycelium diameter: 0.9 ± 1.8 mm
Botrytis cinerea; 0.42% a.i. in PDA
  % efficacy compared to control (Abbott): 100%
  Average mycelium diameter: 0.0 ± 0.0 mm
Pythium ultimum; 0.042% a.i. in PDA
  % efficacy compared to control (Abbott): 100%
  Average mycelium diameter: 0.0 ± 0.0 mm
Pythium ultimum; 0.42% a.i. in PDA
  % efficacy compared to control (Abbott): 100%
  Average mycelium diameter: 0.0 ± 0.0 mm
Sclerotinia sclerotiorum; 0.042% a.i. in PDA
  % efficacy compared to control (Abbott): 98%
  Average mycelium diameter: 1.4 ± 0.5 mm
Sclerotinia sclerotiorum; 0.42% a.i. in PDA
  % efficacy compared to control (Abbott): 100%
  Average mycelium diameter: 0.0 ± 0.0 mm
Sclerotinia minor; 0.042% a.i. in PDA
  % efficacy compared to control (Abbott): 96%
  Average mycelium diameter: 2.8 ± 4.3 mm
Sclerotinia minor; 0.42% a.i. in PDA
  % efficacy compared to control (Abbott): 99%
  Average mycelium diameter: 0.8 ± 0.9 mm
Rhizoctonia solani; 0.042% a.i. in PDA
  % efficacy compared to control (Abbott): 67%
  Average mycelium diameter: 17.1 ± 1.9 mm
Rhizoctonia solani; 0.42% a.i. in PDA
  % efficacy compared to control (Abbott): 100%
  Average mycelium diameter: 0.3 ± 0.5 mm
Apple trees
  symptoms of phytotoxicity on the plants: no symptoms of phytotoxicity
Lettuce plants; 0 DAA
  Phytotoxicity (%) evaluation on lettuce plants: 0.00%
Lettuce plants; 1 DAA
  Phytotoxicity (%) evaluation on lettuce plants: 1.33%
Lettuce plants; 2 DAA
  Phytotoxicity (%) evaluation on lettuce plants: 1.67%
Lettuce plants; 7 DAA
  Phytotoxicity (%) evaluation on lettuce plants: 3.50%
